Source: US20110118224A1, “USE OF STEROID SULFATASE INHIBITORS FOR THE TREATMENT OF PRETERM LABOR” (priority 2008, published 2011)

Assays:
[1] = tested on: time-mated female Sprague-Dawley rats; assay: Developmental toxicity in the rat; assay type: in vivo
Text: The safety of a use of a steroid sulfatase inhibitor according to the invention, measured by no or minor effects induced on foetus development during gestation in pregnant rat can be investigated as follows.
The effects of a steroid sulfatase inhibitor according to the invention (Estradiol Sulfamate or E2MATE) on the embryonic and foetal development of the rat was investigated when administered during the period of organogenesis (Days 6 to 17 of gestation). Four groups each of 20 time-mated female Sprague-Dawley rats were dosed with 0 (Control), 7.5, 22 or 60 μg/kg/day of Estardiol sulfamate from Day 6 to Day 17 of gestation. A further group of twenty females was dosed with ethinylestradiol at 80 μg/kg/day and acted as a positive control.
Clinical observations, bodyweight and food consumption were recorded and the progress and outcome of pregnancy was assessed on Day 20 of gestation. Foetal pathology to assess abnormalities and variations was carried out on all foetuses.

[2] = tested on: time-mated female New Zealand White rabbits; assay: Developmental toxicity in the rabbit; assay type: in vivo
Text: The safety of a use of a steroid sulfatase inhibitor according to the invention, measured by no or minor effects induced on foetus development during gestation in pregnant rabbit can be investigated as follows.
The effects of a steroid sulfatase inhibitor according to the invention (Estradiol Sulfamate or E2MATE) on the embryonic and foetal development of the rabbit when administered during the period of organogenesis (Days 6 to 18 of gestation). Four groups each of between 20 to 25 time-mated female New Zealand White rabbits were dosed with 0 (Control), 5, 15 or 50 μg/kg/day from Day 6 to Day 18 of gestation. A further group of twenty females was administered with ethinylestradiol at 50 μg/kg/day and acted as a positive control. Clinical observations, bodyweight and food consumption were recorded and the progress and outcome of pregnancy was assessed on Day 28 of gestation. Foetal pathology to assess abnormalities and variations was carried out on all foetuses

[3] = Placental barrier crossing ability measurement (whole body autoradiography of 14C-labeled compound); assay type: in vivo, rat; details: for Passage of the placental barrier: compound and/or its main metabolite
Experimental: The ability of a steroid sulfatase inhibitor according to the invention to cross the placental barrier can be investigated as follows. This assay was performed with a steroid sulfatase inhibitor according to the invention (Estradiol Sulfamate or E2MATE) which is used for the treatment of symptoms related to estrogen deficiency in postmenopausal or hysterectomized women.
Six female albino rats received a single intravenous bolus dose of 0.47 mg ^14C-labeled Estradiol Sulfamate per kg. Six female albino, 3 pregnant albino and 4 female pigmented rats received 1 mg ^14C-labeled Estradiol Sulfamate per kg as an intragastic dose. […] Animals were deeply frozen in a mixture of hexane and dry ice and embedded into a block of carboxymethyl cellulose, which was frozen and stored at approximately −20° C. External standards were used for semi-quantitative evaluation of radioluminograms and were prepared by spiking an erythrocyte concentrate with different concentrations of ^14C-radioactivity. Pores were drilled into a separate block of carboxymethyl cellulose, filled with external standards and frozen at approximately −20° C. Whole body sagittal sections of 50 μm thickness were taken through each animal and the external standard block using a Leica CM 3600 cryomicrotome. After freeze drying of the sections in the cryostat for a minimum time of 48 hours, they were exposed to an Imaging Plate (IP) for a period of 4 to 24 hours and the IP was scanned using the bioimaging analyzer BAS 2000. For evaluation, the external standard samples were related to a colored scale using the software AIDA (Advanced Image Data Analysis, version 3.10, Raytest, Germany), each color representing a specific radioactive concentration (MBq). The different tissues were compared semi-quantitatively to the external standards and concentration ranges were determined.

[4] = dosed Day 6 to Day 17 of gestation
[5] = dosed Day 6 to Day 18 of gestation
[6] = 1 h post-dose, 1 mg/kg i.g., pregnant albino rats, semi-quantitative

Structure (SMILES) | Effects in foetuses / teratogenic action ([1]; at about 22 μg/kg/day) | No Observed Adverse Effect Level (NOAEL) for foetal development [1, 4] | No Observed Effect Level (NOEL) for female toxicity [1, 4] | Observed female toxicity at the higher doses ([1]; doses above 7.5 μg/kg/day (22 or 60 μg/kg/day)) | No Observed Adverse Effect Level (NOAEL) for embryofoetal development [2, 5] | No Observed Adverse Effect Level for maternal toxicity during the period of organogenesis [2, 5] | Dosage-related maternal effects at higher doses ([2]; doses above 5 μg/kg/day (15 or 50 μg/kg/day)) | Tolerance by the females compared with ethinylestradiol (positive control) ([2]; ethinylestradiol at 50 μg/kg/day) | Distribution of radiolabel in pregnant albino animals compared to female albino rats ([3]; 1 mg/kg 14C-labeled, intragastric, pregnant (18 day p.c.) albino rats) | 14C-concentrations in pregnant animals versus non-pregnant animals ([3]; 1 h post-dose, 1 mg/kg i.g.) | 14C-radiolabel concentration in foetal liver [3, 6] | 14C-radiolabel concentration in foetal membranes [3, 6] | 14C-radiolabel concentration in mammary gland [3, 6] | 14C-radiolabel concentration in placenta [3, 6] | 14C-radiolabel concentration in the foetus [3, 6] | 14C-concentrations (foetus, foetal liver, placenta, mammary gland, foetal membranes) ([3]; 7 h and 1 day post dose, 1 mg/kg i.g., pregnant albino rats) | general radiolabel concentration in pregnant animals versus non-pregnant animals ([3]; after 7 h, 1 mg/kg i.g.) | Passage of the placental barrier ([3]; pregnant albino rats)
C[C@]12CC[C@@H]3c4ccc(OS(N)(=O)=O)cc4CC[C@H]3[C@@H]1CC[C@@H]2O [Estradiol Sulfamate] | some minor effects in foetuses but no teratogenic action | about 22 μg/kg/day | about 7.5 μg/kg/day | limited to reduced food consumption and an associated reduction in bodyweight gain during gestation | about 15 μg/kg/day | about 5 μg/kg/day | limited to lower bodyweight gain and food consumption | generally better tolerated | similar | slightly higher | high range | medium | medium | high range | high range | between the higher low and the lower high range | lower | passed the placental barrier reversibly
CC12CCC3c4ccc(OS(N)(=O)=O)cc4CCC3C1CCC2=O (stereo not shown) [Estrone Sulfamate] | – | – | – | – | – | – | – | – | – | – | – | – | – | – | – | – | – | passed the placental barrier reversibly
